Measured values taken from patent US20140051662A1 (priority 2011, published 2014).
Read-outs that look alike come from different tables or passages of the source.

Legend:
[1] = tested on: fresh plasma cells from patients with t(4;14) multiple myeloma expressing FGFR3; experiment: proliferation of fresh plasma cells from patients; format: cell-based, human
Experimental: Bone marrow plasma cells were CD138-selected using MACS systems (Miltenyi Biotec, Germany). […] [6-^3H] thymidine (Amersham Biosciences, UK) was added (1 μCi/well) for 16 hours. Thymidine incorporation was measured by liquid scintillation counting (Wallace, PerkinElmer). All experiments were performed in triplicate.

[2] = tested on: RPMI 8226 cells (t(4;14) negative); experiment: thymidine proliferation assay, RPMI 8226; format: cell-based, human
Experimental: (§1) Multiple myeloma cell lines RPMI 8226, U266 (t(4;14) negative) and OPM2, LP1, NCI-H929 (t(4;14) positive) were cultured in RPMI medium (Gibco-BRL) supplemented with 10% fetal calf serum (FCS, Life Technologies), 100 units/ml penicillin, 100 μg/ml streptomycin, except LP1 which were cultured in DMEM (Gibco-BRL). Bone marrow plasma cells were CD138-selected using MACS systems (Miltenyi Biotec, Germany). […] [6-^3H] thymidine (Amersham Biosciences, UK) was added (1 μCi/well) for 16 hours. Thymidine incorporation was measured by liquid scintillation counting (Wallace, PerkinElmer). All experiments were performed in triplicate.

[3] = tested on: OPM2 cells (t(4;14) positive); experiment: thymidine proliferation assay, OPM2; format: cell-based, human
Experimental: as §1

[4] = tested on: U266 cells (t(4;14) negative); experiment: thymidine proliferation assay, U266; format: cell-based, human
Experimental: as §1

[5] = tested on: FGFR3 expressing Ba/F3 cells; experiment: proliferation of FGFR3 expressing Ba/F3 cells; format: cell-based, mouse; conditions: FIG. 1A, dose-dependent
Experimental: [6-^3H] thymidine (Amersham Biosciences, UK) was added (1 μCi/well) for 16 hours. Thymidine incorporation was measured by liquid scintillation counting (Wallace, PerkinElmer). All experiments were performed in triplicate.

[6] = tested on: LP1 cells (t(4;14) positive); experiment: thymidine proliferation assay, LP1; format: cell-based, human
Experimental: as §1

[7] = tested on: human cord blood mast cells; conditions: cited from earlier work
[8] = tested on: patients with relapsing or refractory multiple myeloma; experiment: open-label phase 2 study, masitinib plus bortezomib/dexamethasone (VD); format: in vivo, human
From the text: Initially, this study was to investigate the safety and efficacy of masitinib administered in combination with the chemotherapy regimens of masitinib plus (dexamethasone/bortezomib/thalidomide); or masitinib plus (dexamethasone/bortezomib/adriamycin). However, after early preliminary results both these latter arms were eliminated from the study due to a tendency of higher incidence of adverse events or because these were not considered a gold standard treatment in this pathology. […] Velcade: 1.3 mg/m^2 intravenously; Level 1: Days 1 and 4; Level 2: Days 1, 4, 8 and 11 Dexamethasone: 40 mg/day, orally; Level 1: Days 1 to 4; Level 2: Days 1 to 4, 8 and 11 Adriamycin: 9 mg/m2 intravenously (bolus or perfusion); Days 1 to 4 Thalidomide: 200 mg/day, orally, once daily in the evening […] The two dosing regimens of the bortezomib plus dexamethasone combination (VD) were successively tested. After the observation that a low level of VD was well tolerated in four patients, the following patients were treated at a higher level. Included were patients with refractory or relapsing multiple myeloma: • With t(4; 14) translocation regardless of FGFR3 status, i.e. expressing FGFR3 or not; • or without a t(4; 14) translocation and relapsing within 1 year after the first line therapy including or not bone marrow transplantation. All patients were to receive combination therapy for the planned number of cycles or until disease progression, after which they could continue with masitinib plus dexamethasone in an extension phase.

[9] = tested on: intrinsic PDGF receptor; experiment: tyrosine phosphorylation in Ba/F3 cells (Western), PDGF receptor positive control; format: cell-based; conditions: FIG. 1B
[10] = tested on: patients with relapsed or refractory t(4;14) multiple myeloma
[11] = molecular target: Lyn (Homo sapiens, UniProt P07948); experiment: inhibition of Lyn kinase
Sequence of Lyn (P07948 whole entry, species assumed, the tested form may be a part): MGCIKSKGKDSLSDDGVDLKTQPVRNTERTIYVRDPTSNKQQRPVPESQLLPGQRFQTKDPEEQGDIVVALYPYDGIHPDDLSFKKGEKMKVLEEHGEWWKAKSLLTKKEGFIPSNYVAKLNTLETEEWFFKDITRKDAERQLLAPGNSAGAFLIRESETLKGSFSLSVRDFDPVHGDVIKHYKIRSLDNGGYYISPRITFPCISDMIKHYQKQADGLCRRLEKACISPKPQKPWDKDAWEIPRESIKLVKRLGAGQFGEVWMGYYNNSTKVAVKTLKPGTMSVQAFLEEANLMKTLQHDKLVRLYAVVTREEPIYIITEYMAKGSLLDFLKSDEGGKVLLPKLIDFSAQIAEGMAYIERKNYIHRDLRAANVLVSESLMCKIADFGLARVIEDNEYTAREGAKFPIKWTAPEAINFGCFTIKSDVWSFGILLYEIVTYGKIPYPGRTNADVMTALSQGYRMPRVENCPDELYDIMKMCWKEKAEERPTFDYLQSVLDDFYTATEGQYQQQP

[12] = tested on: intracellular domain of FGFR3; experiment: tyrosine phosphorylation in Ba/F3 cells (Western), FGFR3; format: cell-based, human; conditions: masitinib 1 μM, 10 ng/ml FGF
[13] = tested on: NCI-H929 cells (t(4;14) positive); experiment: thymidine proliferation assay, NCI-H929; format: cell-based; conditions: Homo sapiens
Experimental: as §1

[14] = 13 patients receiving VD as second line therapy (first relapse)
[15] = cohort VD Level 2, two patients
[16] = masitinib plus VD, all 17 patients
[17] = beyond first relapse, aggressive relapse
[18] = beyond first relapse, non-aggressive relapse
[19] = masitinib plus dexamethasone combination therapy
[20] = more than two previous lines (beyond first relapse)
[21] = second line of treatment (first relapse)

Cc1ccc(NC(=O)c2ccc(CN3CCN(C)CC3)cc2)cc1Nc1nc(-c2cccnc2)cs1 [masitinib, 4-(4-methylpiperazin-1-ylmethyl)-N-[4-methyl-3-(4-pyridin-3ylthiazol-2-ylamino)phenyl]benzamide]
proliferation [1]: inhibited | effect on proliferation [2]: no effect | anti-proliferative interaction with dexamethasone ([3]; combination with dexamethasone): synergy | reduction of proliferation compared to dexamethasone alone ([3]; masitinib added to dexamethasone, 5 times less dexamethasone): 2 fold | proliferation ([4]; U266, t(4;14) negative): significantly and dose-dependently decreased | anti-proliferative interaction with dexamethasone ([4]; combination with dexamethasone, U266): synergy | reduction of proliferation compared to dexamethasone alone ([4]; masitinib added to dexamethasone, 5 times less dexamethasone, U266): 7 fold | growth of BaF3 cell expressing the intracellular kinase domain of FGFR3 [5]: inhibited | inhibition at 2 µM ([6]; Homo sapiens, LP-1): 50% | anti-proliferative interaction with dexamethasone ([6]; combination with dexamethasone, FGF-activated LP1): synergy | reduction of proliferation compared to dexamethasone alone ([6]; masitinib added to dexamethasone, 5 times less dexamethasone, FGF-activated LP1): 2 fold | FcεRI-mediated degranulation [7]: inhibition | Median PFS ([8]; 4 patients treated at level 1): 2.9 months | Median OS [8, 14]: 22.3 months | Median PFS [8, 14]: 9.3 months | Median PFS ([8]; 13 patients treated at level 2): 7.4 months | Median overall survival (OS) ([8]; 13 patients treated at level 2): 20.0 months | patients with best response of partial response ([8]; VD as second line therapy, eleven of 12): 92% | Median overall survival (OS) ([8]; all patients): 18.1 months | grade 4 adverse event suspected to be treatment-related ([8]; cohort VD Level 1): No grade 4 adverse event | patients with at least one AE suspected to be treatment-related ([8]; cohort VD Level 1, 4 patients): All patients | patients with at least one AE suspected to be treatment-related ([8]; cohort VD Level 2, 8 of 13 patients): 62% | patients with a grade 3 AE suspected to be treatment-related [8, 15]: 15% | patients with at least one grade 4 AE suspected to be treatment-related [8, 15]: 15% | patients still alive at the cut-off date ([8]; five of 17 VD patients, 31 Mar. 2010): 29% | patients with a very good partial response ([8]; intent-to-treat population): five | response rate (complete response or partial response) ([8]; intent-to-treat population): 75% | patients with at least one AE suspected to be treatment-related [8, 16]: 71% | patients with at least one grade 4 AE suspected to be treatment-related [8, 16]: 12% | median progression free survival (PFS) ([8]; overall VD population): 7.4 months | response rate (complete response or partial response) ([8]; per-protocol population): 86% | Median OS ([8]; t(4;14) negative patients): 25.3 months | Median PFS ([8]; t(4;14) negative patients): 9.3 months | patients with best response of partial response ([8]; t(4;14) negative patients, three of five): 60% | Median OS ([8]; t(4;14) positive patients): 17.1 months | Median PFS ([8]; t(4;14) positive patients): 5.9 months | patients with best response of partial response ([8]; t(4;14) positive patients, 8 out of 10): 80% | phosphorylation of the PDGF receptor [9]: Inhibition | patients with rashes ([10]; 2 patients): 8.3% | patients with suspected diarrhea ([10]; 10 patients): 41.7% | patients with drug-related edema ([10]; 13 patients): 54.2% | patients with nausea and/or vomiting ([10]; 16 patients, suspected AE): 66.7% | patients with suspected masitinib-related (or not assessable) adverse events ([10]; 21 of 24 patients): 87.5% | suspected masitinib-related (or not assessable) adverse events, total number ([10]; 24 patients): 145 | median overall survival ([10]; all 24 patients): 19.8 months | median progression free survival (PFS) ([10]; all 24 patients): 3.9 months | survival ([10]; all patients with unsatisfactory response to previous treatment or in first relapse): at least 1 year | median overall survival [10, 17]: 8.1 months | median progression free survival (PFS) [10, 17]: 2.1 months | median overall survival [10, 18]: 25.4 months | median progression free survival (PFS) [10, 18]: 3.9 months | patients who discontinued because of AEs suspected to be masitinib-related ([10]; five patients): 20.8% | patients with severe edema ([10]; in vivo): two | patients with severe nausea ([10]; in vivo): Three | patients with Minor Response [10, 19]: 5 patients | patients with very good partial response (IMWG criteria) [10, 19]: one | response in patients with aggressive relapse [10, 19]: No response | median overall survival [10, 20]: 8.6 months | median progression free survival (PFS) [10, 20]: 3.0 months | patients still alive after 2 years ([10]; overall): 43.5% | median overall survival [10, 21]: 35.7 months | median progression free survival (PFS) [10, 21]: 9.1 months | patients with at least one suspected masitinib-related (or not assessable) serious adverse event ([10]; seven patients): 29.2% | patients with severe suspected adverse events (non-hematological grade 3/4) ([10]; seven patients): 29.2% | patients with acute renal failure ([10]; severe): two | concentrations at which the kinase is inhibited [11]: submicromolar | phosphorylation of the intracellular domain of FGFR3 [12]: inhibited | inhibition at 2 µM [13]: 50%
